Measurements: patent publication US8569292B2, “Cyclic inhibitors of 11β-hydroxysteroid dehydrogenase 1” (Vitae Pharmaceuticals, Inc., priority 2008, dated 2013)
pIC50: −log10 of the molar value.

Key:
CYP3A4 = CYP3A4 (Homo sapiens, UniProt P08684); assay: Biological Test Example 6: CYP3A4 inhibition (erythromycin N-demethylation); format: in vitro ADME
CYP2C19 = CYP2C19 (Homo sapiens, UniProt P33261); assay: Biological Test Example 8: CYP2C19 inhibition (diazepam N-demethylation); format: in vitro ADME
CYP2C19, sequence (P33261 whole entry): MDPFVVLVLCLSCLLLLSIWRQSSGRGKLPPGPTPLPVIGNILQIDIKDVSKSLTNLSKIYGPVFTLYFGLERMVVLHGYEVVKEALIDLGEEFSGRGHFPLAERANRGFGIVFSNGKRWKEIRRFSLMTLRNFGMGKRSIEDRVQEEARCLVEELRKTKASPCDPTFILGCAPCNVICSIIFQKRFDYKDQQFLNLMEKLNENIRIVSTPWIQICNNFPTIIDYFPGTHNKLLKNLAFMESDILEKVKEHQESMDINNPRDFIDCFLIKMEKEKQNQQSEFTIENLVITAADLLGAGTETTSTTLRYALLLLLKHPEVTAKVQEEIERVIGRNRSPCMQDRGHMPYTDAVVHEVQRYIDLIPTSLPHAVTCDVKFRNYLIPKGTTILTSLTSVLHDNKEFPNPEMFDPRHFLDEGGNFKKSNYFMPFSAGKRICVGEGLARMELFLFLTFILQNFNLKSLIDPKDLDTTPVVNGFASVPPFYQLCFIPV

CYP2C9 = target: T1, CYP2C9 (Homo sapiens, UniProt P11712); assay: Biological Test Example 7: CYP2C9 inhibition (naproxen O-demethylation); format: in vitro ADME
T1 construct: purchased Invitrogen 2859; host or cells: insect cells infected with baculovirus (microsomes)
T1 sequence (P11712 whole entry): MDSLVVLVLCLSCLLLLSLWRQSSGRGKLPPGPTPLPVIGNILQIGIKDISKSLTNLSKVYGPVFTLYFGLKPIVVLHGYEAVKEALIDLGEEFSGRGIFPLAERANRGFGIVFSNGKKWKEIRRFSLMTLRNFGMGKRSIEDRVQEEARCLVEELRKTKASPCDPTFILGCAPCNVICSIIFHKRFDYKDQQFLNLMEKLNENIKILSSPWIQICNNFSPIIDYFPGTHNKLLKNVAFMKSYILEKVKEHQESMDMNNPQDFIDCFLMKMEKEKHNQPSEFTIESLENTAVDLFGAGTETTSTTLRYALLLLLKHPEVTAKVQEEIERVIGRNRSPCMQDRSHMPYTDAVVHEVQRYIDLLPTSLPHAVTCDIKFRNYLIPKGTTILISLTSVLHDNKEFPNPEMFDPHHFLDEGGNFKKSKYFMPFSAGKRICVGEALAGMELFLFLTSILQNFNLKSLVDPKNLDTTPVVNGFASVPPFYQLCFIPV

11β-HSD1 [1] = target: T2, 11β-HSD1 (Homo sapiens, UniProt P28845); assay: biochemical; conditions: for IC50: Biological Test Example 1 IC50 (nM); for pIC50: IC50 Range, Biological Test Example 1; for inhibition at 0.1 µM: read-out: Average % inhibition at 100 nM
T2 sequence (P28845 whole entry): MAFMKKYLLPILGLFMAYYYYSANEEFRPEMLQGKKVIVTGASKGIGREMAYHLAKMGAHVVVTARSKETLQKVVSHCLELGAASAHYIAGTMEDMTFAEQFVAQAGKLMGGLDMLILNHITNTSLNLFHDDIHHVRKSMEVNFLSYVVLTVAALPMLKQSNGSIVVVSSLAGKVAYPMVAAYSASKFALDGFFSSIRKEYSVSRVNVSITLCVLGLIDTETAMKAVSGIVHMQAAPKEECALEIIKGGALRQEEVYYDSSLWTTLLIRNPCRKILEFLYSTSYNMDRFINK

11β-HSD1 [2] = target: T2, 11β-HSD1; assay: Biological Test Example 4: microsomal 11β-HSD1 in the presence of 50% human plasma; conditions: for Shift: IC50 in Test Example 4 divided by IC50 in Test Example 1

CYP3A4, sequence (P08684 whole entry): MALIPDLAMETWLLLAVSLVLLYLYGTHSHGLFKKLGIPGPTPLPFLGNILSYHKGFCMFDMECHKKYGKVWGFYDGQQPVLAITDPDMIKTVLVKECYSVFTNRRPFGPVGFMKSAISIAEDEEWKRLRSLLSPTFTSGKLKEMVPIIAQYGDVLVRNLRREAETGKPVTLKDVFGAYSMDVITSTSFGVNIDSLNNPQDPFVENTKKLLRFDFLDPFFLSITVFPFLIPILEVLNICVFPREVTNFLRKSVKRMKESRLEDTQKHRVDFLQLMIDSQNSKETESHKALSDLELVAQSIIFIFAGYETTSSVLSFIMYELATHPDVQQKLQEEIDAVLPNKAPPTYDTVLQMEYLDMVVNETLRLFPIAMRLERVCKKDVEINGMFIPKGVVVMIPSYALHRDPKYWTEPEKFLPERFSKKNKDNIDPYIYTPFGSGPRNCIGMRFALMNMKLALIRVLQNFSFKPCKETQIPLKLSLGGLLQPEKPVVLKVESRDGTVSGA

Compound | pIC50 (CYP3A4) | pIC50 (CYP2C19) | pIC50 (CYP2C9) | IC50 (11β-HSD1 [1]) [nM] | pIC50 (11β-HSD1 [1]) | inhibition at 0.1 µM (11β-HSD1 [1]) [%] | pIC50 (11β-HSD1 [2]) | Shift (11β-HSD1 [2])
Cc1nnc(-c2ccc([C@H](C)N3CC[C@](CC(C)(C)O)(c4ccccc4)OC3=O)cc2)s1 [EXAMPLE 172, (S)-6-(2-Hydroxy-2-methyl-propyl)-3-{(S)-1-[4-(5-methyl-[1,3,4]thiadiazol-2-yl)-phenyl]-ethyl}-6-phenyl-[1,3]oxazinan-2-one] | < 4.30 | 4.35 | 4.42 | 3.3 | > 7.00 | 97.9 | 7.97 | 
C[C@@H](c1ccc(-c2ccc(C#N)cn2)cc1)N1CC[C@](CCCO)(c2ccc(F)cc2)OC1=O [EXAMPLE 101, 6-(4-((S)-1-((R)-6-(4-fluorophenyl)-6-(3-hydroxypropyl)-2-oxo-1,3-oxazinan-3-yl)ethyl)phenyl)nicotinonitrile] | < 4.30 | < 4.30 | 5.00 | 1.2 | > 7.00 | 100 | 8.12 | 6.0
C[C@@H](c1ccc(-c2cnc(C(=O)NC(C)(C)C)nc2)cc1)N1CC[C@](CC(C)(C)O)(c2ccccc2)OC1=O [EXAMPLE 17, N-tert-butyl-5-(4-((S)-1-((S)-6-(2-hydroxy-2-methylpropyl)-2-oxo-6-phenyl-1,3-oxazinan-3-yl)ethyl)phenyl)pyrimidine-2-carboxamide] | 4.34 | 5.23 | 4.75 | 2.2 | > 7.00 | 94 | 8.24 | 2.5
C[C@@H](c1ccc(-c2cnc(C(=O)NC3CC3)nc2)cc1)N1CC[C@](CC(C)(C)C#N)(c2ccccc2)OC1=O [EXAMPLE 16, 5-(4-((S)-1-((R)-6-(2-cyano-2-methylpropyl)-2-oxo-6-phenyl-1,3-oxazinan-3-yl)ethyl)phenyl)-N-cyclopropylpyrimidine-2-carboxamide] | 4.60 | 5.21 | < 4.30 | 0.8 | > 7.00 | 97.9 | 8.26 | 6.9
C[C@@H](c1ccc(-c2nc(C(=O)NC3CC3)cs2)cc1)N1CC[C@](CC(C)(C)O)(c2ccccc2)OC1=O [EXAMPLE 19, N-cyclopropyl-2-(4-((S)-1-((S)-6-(2-hydroxy-2-methylpropyl)-2-oxo-6-phenyl-1,3-oxazinan-3-yl)ethyl)phenyl)thiazole-4-carboxamide] | 4.57 | 4.99 | 4.50 | 1.9 | > 7.00 | 94.6 | 7.70 | 10.4
Cc1ccc(-c2ccc([C@H](C)N3CC[C@](CC(C)(C)O)(c4ccc(F)cc4)OC3=O)cc2)nn1 [EXAMPLE 155, (S)-6-(4-fluorophenyl)-6-(2-hydroxy-2-methylpropyl)-3-((S)-1-(4-(6-methylpyridazin-3-yl)phenyl)ethyl)-1,3-oxazinan-2-one] | < 4.30 | < 4.30 | 4.41 | 2.1 | > 7.00 | 94.7 | 8.19 | 3.0
C[C@@H](c1ccc(-c2ccc(C(=O)NC3CC3)nn2)cc1)N1CC[C@](CC(C)(C)O)(c2ccccc2)OC1=O [EXAMPLE 10, N-cyclopropyl-6-(4-((S)-1-((S)-6-(2-hydroxy-2-methylpropyl)-2-oxo-6-phenyl-1,3-oxazinan-3-yl)ethyl)phenyl)pyridazine-3-carboxamide] | 4.46 | 4.84 | 4.67 | 2.5 | > 7.00 | 93.6 | 8.12 | 
C[C@@H](c1ccc(-c2ccc(C(=O)N(C)C)cn2)cc1)N1CC[C@](CC(C)(C)O)(c2ccccc2)OC1=O [EXAMPLE 156, 6-(4-((S)-1-((S)-6-(2-hydroxy-2-methylpropyl)-2-oxo-6-phenyl-1,3-oxazinan-3-yl)ethyl)phenyl)-N,N-dimethylnicotinamide] | < 4.30 | 4.32 | < 4.30 | 1.1 | > 7.00 | 96.4 | 8.00 | 
C[C@@H](c1ccc(-c2ccc(C(=O)NC3CC3)cn2)cc1)N1CC[C@](CC(C)(C)O)(c2ccccc2)OC1=O [EXAMPLE 161, N-cyclopropyl-6-(4-((S)-1-((S)-6-(2-hydroxy-2-methylpropyl)-2-oxo-6-phenyl-1,3-oxazinan-3-yl)ethyl)phenyl)nicotinamide] | < 4.30 | 4.98 | 4.44 | 1.1 | > 7.00 | 95.1 | 8.41 | 
C[C@@H](c1ccc(-c2ccc(C(=O)NC(C)(C)C)nn2)cc1)N1CC[C@](CC(C)(C)C#N)(c2ccccc2)OC1=O [EXAMPLE 9, N-tert-butyl-6-(4-((S)-1-((R)-6-(2-cyano-2-methylpropyl)-2-oxo-6-phenyl-1,3-oxazinan-3-yl)ethyl)phenyl)pyridazine-3-carboxamide] | 4.31 | 6.10 | < 4.30 | 1.3 | > 7.00 | 92.4 | 8.29 | 3.9
C[C@@H](c1ccc(-c2ncc(F)cn2)cc1)N1CC[C@](CC(C)(C)O)(c2ccccc2)OC1=O [EXAMPLE 13, (S)-3-((S)-1-(4-(5-fluoropyrimidin-2-yl)phenyl)ethyl)-6-(2-hydroxy-2-methylpropyl)-6-phenyl-1,3-oxazinan-2-one] | < 5.00 | < 5.00 | < 5.00 | 1.8 | > 7.00 | 92.1 | 7.98 | 

Second part, the molecule after the results:

pIC50 (CYP3A4) | pIC50 (CYP2C19) | pIC50 (CYP2C9) | IC50 (11β-HSD1 [1]) [nM] | pIC50 (11β-HSD1 [1]) | inhibition at 0.1 µM (11β-HSD1 [1]) [%] | pIC50 (11β-HSD1 [2]) | Shift (11β-HSD1 [2]) | Compound
4.92 | 5.02 | 4.99 | 1.2 | > 7.00 | 98.6 | 7.92 | 9.8 | Cc1cc(-c2ccc([C@H](C)N3CC[C@](CC(C)(C)O)(c4ccc(F)cc4)OC3=O)cc2)cc(C)n1 [EXAMPLE 144, (S)-3-((S)-1-(4-(2,6-dimethylpyridin-4-yl)phenyl)ethyl)-6-(4-fluorophenyl)-6-(2-hydroxy-2-methylpropyl)-1,3-oxazinan-2-one]
4.71 | 4.62 | 4.70 | 0.7 | > 7.00 | 96.3 | 8.40 | 5.8 | C[C@@H](c1ccc(-c2ccc(C3CC3)nn2)cc1)N1CC[C@](CC(C)(C)O)(c2ccccc2)OC1=O [EXAMPLE 4, (S)-3-((S)-1-(4-(6-cyclopropylpyridazin-3-yl)phenyl)ethyl)-6-(2-hydroxy-2-methylpropyl)-6-phenyl-1,3-oxazinan-2-one]
4.64 | 4.45 | 4.35 | 1.8 | > 7.00 | 97.3 | 8.27 | 3.1 | Cc1nccc(-c2ccc([C@H](C)N3CC[C@](CC(C)(C)O)(c4ccccc4)OC3=O)cc2)n1 [EXAMPLE 135, (S)-6-(2-hydroxy-2-methylpropyl)-3-((S)-1-(4-(2-methylpyrimidin-4-yl)phenyl)ethyl)-6-phenyl-1,3-oxazinan-2-one]
4.80 | 4.96 | 5.16 | 1.6 | > 7.00 | 90.3 | 8.23 |  | C[C@@H](c1ccc(-c2ccc(C(=O)NC(C)(C)C)cn2)cc1)N1CC[C@](CC(C)(C)O)(c2ccccc2)OC1=O [EXAMPLE 163, N-tert-butyl-6-(4-((S)-1-((S)-6-(2-hydroxy-2-methylpropyl)-2-oxo-6-phenyl-1,3-oxazinan-3-yl)ethyl)phenyl)nicotinamide]
5.06 | 5.43 | < 4.30 | 1 | > 7.00 | 91.6 | 8.47 | 3.5 | C[C@@H](c1ccc(-c2ccc(C(=O)NC3CC3)nn2)cc1)N1CC[C@](CC(C)(C)C#N)(c2ccccc2)OC1=O [EXAMPLE 11, 6-(4-((S)-1-((R)-6-(2-cyano-2-methylpropyl)-2-oxo-6-phenyl-1,3-oxazinan-3-yl)ethyl)phenyl)-N-cyclopropylpyridazine-3-carboxamide]
5.28 | 5.44 | 5.35 | 2.8 | > 7.00 | 90 | 7.74 |  | C[C@@H](c1ccc(-c2nc(C(=O)NC(C)(C)C)cs2)cc1)N1CC[C@](CC(C)(C)O)(c2ccccc2)OC1=O [EXAMPLE 22, N-tert-butyl-2-(4-((S)-1-((S)-6-(2-hydroxy-2-methylpropyl)-2-oxo-6-phenyl-1,3-oxazinan-3-yl)ethyl)phenyl)thiazole-4-carboxamide]
5.35 | 5.77 | 5.64 | 1 | > 7.00 | 95 | 7.76 | 17.5 | CCOc1ncc(-c2ccc([C@H](C)N3CC[C@](CC(C)(C)O)(c4ccccc4)OC3=O)cc2)cc1C [EXAMPLE 160, (S)-3-((S)-1-(4-(6-ethoxy-5-methylpyridin-3-yl)phenyl)ethyl)-6-(2-hydroxy-2-methylpropyl)-6-phenyl-1,3-oxazinan-2-one]
4.68 | 4.40 | 5.05 | 1 | > 7.00 | 96.5 | 8.64 | 2.3 | Cc1ccc(-c2ccc([C@H](C)N3CC[C@](CC(C)(C)C#N)(c4ccccc4)OC3=O)cc2)nn1 [EXAMPLE 166, 2,2-dimethyl-3-((R)-3-((S)-1-(4-(6-methylpyridazin-3-yl)phenyl)ethyl)-2-oxo-6-phenyl-1,3-oxazinan-6-yl)propanenitrile]
